Assay results taken from paper PMC11011439, “Influence of Molecular Design on the Tumor Targeting and Biodistribution of PSMA-Binding Tracers Labeled with Technetium-99m” (International Journal of Molecular Sciences, 2024).
Marks after values point to notes of the source that are not given here.

What was measured:
[1] = Biodistribution in NMRI mice; assay type: in vivo; details: for activity in carcass / activity in intestines with content / uptake in blood / uptake in kidney / uptake in liver / uptake in lung / uptake in salivary glands / uptake in spleen / uptake in stomach: 40 pmol/mouse iv
Method: Four NMRI mice were intravenously injected with 40 pmol of the radiotracer (60 kBq, the mass of the injected compound was adjusted with an unlabeled tracer). The mice were euthanized with a lethal intraperitoneal injection of ketamine/xylazine, followed by exsanguination at 3 and 24 h post-injection (pi). The organs of interest were collected, weighed, and measured for their activity content using a gamma counter. The uptake activity in organs was calculated as the percentage of injected activity per gram (%IA/g) for the blood, salivary glands, lungs, liver, spleen, stomach, and kidneys and as %IA for the remaining carcass and the rest of the intestines with content.

PSMA [2] = target: T1, PSMA (Homo sapiens, UniProt Q04609); experiment: Real-time binding kinetics on living PC3-pip cells (LigandTracer Yellow); details: 5 nM tracer, 1:2 interaction model
T1 construct: expressed in transfected cells; host or cells: PC3-pip cells (from Prof. Martin G. Pomper, Johns Hopkins University)
Method: The binding kinetics of [^99mTc]Tc-labeled BQ0411, BQ0412, and BQ0413 were measured in real time using LigandTracer Yellow Instruments (Ridgeview Instruments AB, Uppsala, Sweden) on PC3-pip cells, as described earlier. The activity binding was recorded at 5 nM on the radiolabeled tracers for 150 min. After measuring the binding kinetics, the medium containing the labeled tracer was replaced with fresh medium, and the dissociation was monitored over 7 h. […]

[3] = Stability of the [99mTc]Tc-maG3 complex in PBS and under cysteine challenge (radio-HPLC); assay type: physicochemical; details: room temperature, 1 h
Method: The iTLC data were cross-validated using radio-HPLC analysis, performed using a Hitachi Chromaster HPLC system with a radioactivity detector and Phenomenex Luna® C18 column (100 Å; 150 × 4.6 mm; 5 µm) at room temperature (20 °C), in the following conditions: solvent A: 0.1% trifluoroacetic acid (TFA) in H2O, solvent B: 0.1% TFA in acetonitrile, flow rate: 1 mL/min. For identity and purity analysis of [^99mTc]Tc-BQ0411 and [^99mTc]Tc-BQ0412, the method with a gradient from 5 to 60% solvent B over 20 min was used.
To evaluate the chemical stability of the [^99mTc]Tc-maG3 complex, fractions of radiolabeled conjugates (10 µL, 0.25 µg) were incubated with a 300× molar excess of cysteine or with PBS at room temperature for 1 h. The test was run in triplicate.

[4] = test system: PSMA-expressing prostate cancer xenografts (PC3-pip); experiment: Biodistribution and tumor targeting in PC3-pip tumor-bearing mice; assay type: in vivo, BALB/c nu/nu mice; details: 3 h pi
Method: PSMA-expressing prostate cancer xenografts were implanted in BALB/c nu/nu mice by subcutaneous injection of PC3-pip cell suspension in PBS (10^7 cells/animal in 100 µL). The average tumor weight was 0.3 ± 0.2 g at the time of the experiment. Four mice per data point were used. Mice were intravenously injected with 5 nmol of the radiotracer (60 kBq, the mass of the injected compound was adjusted with an unlabeled tracer). The mice were euthanized 3 h pi, and the samples were treated as described above.

PC3-pip cells = experiment: Cellular processing (internalization) during continuous incubation; assay type: cell-based; details: 2 nM, 37 °C
Method: To evaluate the cellular processing of [^99mTc]Tc-labeled BQ0411 and BQ0412, PC3-pip cells were incubated with the radiolabeled tracer (2 nM), and at predetermined time points (1, 2, 4, and 8 h), cells were treated with 0.5 mL of 4 M urea solution in a 0.2 M glycine buffer, pH 2.5, for 5 min on ice. After that, the acidic supernatant was collected, and this fraction was considered to be the membrane-bound activity. To lyse the cells, 0.5 mL of 1 M sodium hydroxide solution was added and incubated at 37 °C for at least 20 min. The alkaline-containing solution was collected, and the basic fraction was considered to be the internalized activity.

[5] = Octanol/water distribution coefficient (LogD); assay type: physicochemical; details: n-octanol / Milli-Q water
Method: The LogD was determined experimentally based on the procedure described earlier. Briefly, the radiolabeled compound of interest was added to a LoBind Eppendorf tube (Eppendorf, Hamburg, Germany) containing Milli-Q water (500 μL) and n-octanol (500 μL), and the mixture was vortexed and centrifuged. Thereafter, three fractions from each phase were collected and the activity was measured using a gamma counter. The LogD was calculated by dividing the average activity measured in octanol by the average activity measured in water.

PSMA [6] = target: T1, PSMA; experiment: In vitro binding specificity (saturation with non-labeled PSMA-11) on PC3-pip cells; details: 2 nM tracer, 250-fold molar excess of PSMA-11, 1 h, 37 °C
Method: For the in vitro binding specificity test, approximately 8 × 10^5 of PC3-pip cells per well were seeded in 6-well plates 24 h before the experiment. Cells in three control wells were pre-saturated with a 250-fold excess of non-labeled PSMA-11 15 min before the addition of radiotracers, while the second set was treated with complete media. After 15 min of incubation at room temperature, [^99mTc]Tc-labeled radioligands were added to all wells to reach a concentration of 2 nM. After one hour of incubation at 37 °C, the cells were washed with PBS solution, detached, and collected. Cell-associated activity was measured using a gamma counter and presented as the percentage of added activity.

T1 sequence (Q04609 whole entry): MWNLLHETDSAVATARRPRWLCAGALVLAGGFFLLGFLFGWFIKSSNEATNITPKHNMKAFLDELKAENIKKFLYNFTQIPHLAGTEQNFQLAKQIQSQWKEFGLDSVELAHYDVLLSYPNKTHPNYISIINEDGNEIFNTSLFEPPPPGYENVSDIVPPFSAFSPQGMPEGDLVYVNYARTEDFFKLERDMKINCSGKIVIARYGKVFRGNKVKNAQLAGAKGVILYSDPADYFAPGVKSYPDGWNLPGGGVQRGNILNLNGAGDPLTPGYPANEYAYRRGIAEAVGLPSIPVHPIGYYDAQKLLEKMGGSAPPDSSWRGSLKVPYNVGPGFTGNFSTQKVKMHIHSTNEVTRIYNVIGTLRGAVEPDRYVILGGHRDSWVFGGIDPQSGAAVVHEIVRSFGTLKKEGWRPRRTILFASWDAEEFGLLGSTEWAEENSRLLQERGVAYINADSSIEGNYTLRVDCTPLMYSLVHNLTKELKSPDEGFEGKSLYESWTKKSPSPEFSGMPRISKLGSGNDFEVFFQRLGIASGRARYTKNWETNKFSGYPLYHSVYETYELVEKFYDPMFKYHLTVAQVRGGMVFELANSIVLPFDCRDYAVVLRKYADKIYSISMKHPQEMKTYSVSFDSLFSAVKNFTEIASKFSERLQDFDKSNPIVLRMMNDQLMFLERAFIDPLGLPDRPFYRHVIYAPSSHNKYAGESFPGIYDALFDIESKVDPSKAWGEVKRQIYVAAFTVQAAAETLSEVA

CC(=O)NC(CCCCNC(=O)CNC(=O)C[N]1C(=O)C[N]2C(=O)C[N]3C(=O)C[S][99Tc-]132=[O])C(=O)NCCCCCCCC(=O)NC(Cc1ccc(O)cc1)C(=O)NC(Cc1ccc2ccccc2c1)C(=O)NCCCCC(NC(=O)NC(CCC(=O)O)C(=O)O)C(=O)O (stereo not drawn) [[^99mTc]Tc-BQ0411]
activity in carcass ([1]; 3 h pi): 6.4 ± 0.8 *^,a,b %IA/sample
activity in intestines with content ([1]; 3 h pi): 43 ± 6 *^,a,b %IA/sample
uptake in blood ([1]; 3 h pi): 1.4 ± 0.7 *^,a %IA/g
uptake in kidney ([1]; 3 h pi): 129 ± 22 *^,a,b %IA/g
uptake in liver ([1]; 3 h pi): 0.8 ± 0.1 *^,a %IA/g
uptake in lung ([1]; 3 h pi): 0.8 ± 0.1 *^,a %IA/g
uptake in salivary glands ([1]; 3 h pi): 0.5 ± 0.1 *^,a,b %IA/g
uptake in spleen ([1]; 3 h pi): 0.38 ± 0.07 *^,b %IA/g
uptake in stomach ([1]; 3 h pi): 0.42 ± 0.07 *^,b %IA/g
activity in carcass ([1]; 24 h pi): 0.21 ± 0.01 ^b %IA/sample
activity in intestines with content ([1]; 24 h pi): 0.3 ± 0.2 %IA/sample
uptake in blood ([1]; 24 h pi): 0.027 ± 0.002 ^b %IA/g
uptake in kidney ([1]; 24 h pi): 3.9 ± 0.6 ^b %IA/g
uptake in liver ([1]; 24 h pi): 0.032 ± 0.004 ^b %IA/g
uptake in lung ([1]; 24 h pi): 0.019 ± 0.005 ^b %IA/g
uptake in salivary glands ([1]; 24 h pi): 0.022 ± 0.005 ^b %IA/g
uptake in spleen ([1]; 24 h pi): 0.015 ± 0.002 %IA/g
uptake in stomach ([1]; 24 h pi): 0.06 ± 0.02 ^b %IA/g
activity remaining in the body ([1]; 3 h pi, excluding activity in the intestines with content): 40–50 % from injected
washout of activity from kidneys ([1]; 24 h pi compared to 3 h pi): 97%
ka1 (PSMA [2]): 24000 M⁻¹ s⁻¹
ka2 (PSMA [2]): 67000 M⁻¹ s⁻¹
kd1 (PSMA [2]): 1.4e-05 s⁻¹
kd2 (PSMA [2]): 2e-05 s⁻¹
stability in the presence of cysteine ([3]; 300-fold molar excess of cysteine): stable
stability during incubation in PBS ([3]; PBS): stable
activity in carcass ([4]; 5 nmol/mouse iv): 3.5 ± 0.9 %IA/sample
activity in intestines with content ([4]; 5 nmol/mouse iv): 44 ± 5 ^a,b %IA/sample
uptake in blood ([4]; 5 nmol/mouse iv): 1.0 ± 0.4 ^b %IA/g
uptake in bone ([4]; 5 nmol/mouse iv): 0.20 ± 0.06 %IA/g
uptake in kidney ([4]; 5 nmol/mouse iv): 13 ± 6 %IA/g
uptake in liver ([4]; 5 nmol/mouse iv): 1.9 ± 0.7 ^a,b %IA/g
uptake in lung ([4]; 5 nmol/mouse iv): 0.9 ± 0.3 ^a,b %IA/g
uptake in muscle ([4]; 5 nmol/mouse iv): 0.17 ± 0.05 %IA/g
uptake in pancreas ([4]; 5 nmol/mouse iv): 0.2 ± 0.1 %IA/g
uptake in salivary glands ([4]; 5 nmol/mouse iv): 0.4 ± 0.1 %IA/g
uptake in small intestine ([4]; 5 nmol/mouse iv): 0.9 ± 0.4 %IA/g
uptake in spleen ([4]; 5 nmol/mouse iv): 1.0 ± 0.2 %IA/g
uptake in stomach ([4]; 5 nmol/mouse iv): 0.4 ± 0.2 %IA/g
uptake in tumor ([4]; 5 nmol/mouse iv): 27 ± 4 ^a,b %IA/g
tumor-to-blood ratio ([4]; 5 nmol/mouse): 32 ± 11 ^b
tumor-to-bone ratio ([4]; 5 nmol/mouse): 146 ± 57
tumor-to-kidney ratio ([4]; 5 nmol/mouse): 2.3 ± 0.8 ^a
tumor-to-liver ratio ([4]; 5 nmol/mouse): 16 ± 7 ^a,b
tumor-to-lung ratio ([4]; 5 nmol/mouse): 33 ± 9 ^b
tumor-to-muscle ratio ([4]; 5 nmol/mouse): 173 ± 47 ^b
tumor-to-pancreas ratio ([4]; 5 nmol/mouse): 121 ± 46
tumor-to-salivary ratio ([4]; 5 nmol/mouse): 69 ± 16 ^b
tumor-to-small intestine ratio ([4]; 5 nmol/mouse): 35 ± 18 ^b
tumor-to-spleen ratio ([4]; 5 nmol/mouse): 24 ± 7
tumor-to-stomach ratio ([4]; 5 nmol/mouse): 86 ± 43 ^b
activity uptake in the gastrointestinal tract (with content) [4]: over 40 %IA
tumor uptake, fold higher compared with [99mTc]Tc-BQ0412 and [99mTc]Tc-BQ0413 [4]: 1.6 fold
internalized activity (of cell-associated activity) (PC3-pip cells; 4 h of continuous incubation): 44 ± 1%
internalized activity (of cell-associated activity) (PC3-pip cells; after 4 h (8 h of continuous incubation)): 44.2 ± 0.7%
logD (octanol–water distribution coefficient) [5]: −2.3 ± 0.1
binding to PC3-pip cells after pre-treatment with excess non-labeled PSMA-11 (PSMA [6]): significantly (p ˂ 0.0001) decreased
